According to the supplement of paper PMC13380429:

Experiments:
Conditions in all cases: 72 h
Vero E6 [1] = assay: relative viability EC50 (midpoint between 100% and the lowest measured viability); higher = less toxic
U2OS [2] = assay: as above
Caco-2 [3] = assay: as above
HepG2 [4] = assay: as above
Vero E6 [5] = assay: cell viability relative to DMSO; higher = less toxic
U2OS [6] = assay: as above
Caco-2 [7] = assay: as above
HepG2 [8] = assay: as above
Vero E6 [9] = assay: drug sensitivity score (DSS) for viability; higher = more toxic; extreme values may be limits of the assay
U2OS [10] = assay: as above
Caco-2 [11] = assay: as above
HepG2 [12] = assay: as above
Calu-3 [13] = assay: cell viability relative to DMSO; higher = less toxic
Calu-3 [14] = assay: drug sensitivity score (DSS) for viability; higher = more toxic; extreme values may be limits of the assay
Calu-3 [15] = assay: relative viability EC50 (midpoint between 100% and the lowest measured viability); higher = less toxic

Row | Structure (SMILES) | relative viability EC50 (Vero E6 [1]) | relative viability EC50 (U2OS [2]) | relative viability EC50 (Caco-2 [3]) | relative viability EC50 (HepG2 [4]) | cell viability (Vero E6 [5]; 1 nM) | cell viability (Vero E6 [5]; 10 nM) | cell viability (Vero E6 [5]; 100 nM) | cell viability (Vero E6 [5]; 1000 nM) | cell viability (Vero E6 [5]; 10000 nM) | cell viability (U2OS [6]; 1 nM) | cell viability (U2OS [6]; 10 nM) | cell viability (U2OS [6]; 100 nM) | cell viability (U2OS [6]; 1000 nM) | cell viability (U2OS [6]; 10000 nM) | cell viability (Caco-2 [7]; 1 nM) | cell viability (Caco-2 [7]; 10 nM) | cell viability (Caco-2 [7]; 100 nM) | cell viability (Caco-2 [7]; 1000 nM) | cell viability (Caco-2 [7]; 10000 nM) | cell viability (HepG2 [8]; 1 nM) | cell viability (HepG2 [8]; 10 nM) | cell viability (HepG2 [8]; 100 nM) | cell viability (HepG2 [8]; 1000 nM) | cell viability (HepG2 [8]; 10000 nM) | drug sensitivity score (Vero E6 [9]) | drug sensitivity score (U2OS [10]) | drug sensitivity score (Caco-2 [11]) | drug sensitivity score (HepG2 [12]) | cell viability (Calu-3 [13]; 1 nM) | cell viability (Calu-3 [13]; 10 nM) | cell viability (Calu-3 [13]; 100 nM) | cell viability (Calu-3 [13]; 1000 nM) | cell viability (Calu-3 [13]; 10000 nM) | drug sensitivity score (Calu-3 [14]) | relative viability EC50 (Calu-3 [15])
1 | Brc1c(Br)c(Br)c2[nH]nnc2c1Br [4,5,6,7-tetrabromobenzotriazole] | > 10 µM | > 10 µM | > 10 µM | > 10 µM | 105% | 103% | 101% | 99.4% | 103% | 97.2% | 98% | 97.9% | 100% | 99.2% | 93.8% | 107% | 90.4% | 95.7% | 99.2% | 117% | 93.9% | 102% | 93.3% | 107% | 0 | 0 | 0 | 0 |  |  |  |  |  |  | 
2 | CN(C)C(=O)c1cc2cnc(Nc3ccc(N4CCNCC4)cn3)nc2n1C1CCCC1 [ribociclib] | > 10 µM | > 10 µM | > 10 µM |  | 95.5% | 98.8% | 98% | 94.4% | 84% | 92.8% | 96.9% | 92.7% | 98.4% | 90.4% | 92.1% | 95.9% | 96.1% | 95% | 90.3% | 95.1% | 101% | 87.5% | 78% | 71.8% | 0.6 | 0 | 0 | 4.5 | 99.7% | 90.3% | 94% | 95.3% | 73.1% | 1.8 | 
3 | O=C(O)c1ccc(-n2nc(-c3ccccc3O)nc2-c2ccccc2O)cc1 [deferasirox] |  | 2.16 µM |  | 2.17 µM | 104% | 104% | 106% | 101% | 56.9% | 103% | 102% | 99% | 93.5% | 47.1% | 110% | 92.5% | 104% | 96% | 58.8% | 110% | 93.2% | 106% | 91.6% | 31.3% | 2.1 | 3.9 | 2.7 | 5.2 | 99.7% | 100% | 97.4% | 104% | 72.2% | 0.9 | 
4 | COc1c2occc2c(OC)c2c(=O)cc(C)oc12 [khellin] | > 10 µM | > 10 µM | > 10 µM | > 10 µM | 105% | 99.8% | 94.2% | 99.7% | 98.5% | 103% | 98.6% | 99.5% | 98.8% | 96.3% | 97.1% | 110% | 94.9% | 107% | 102% | 96.2% | 99.2% | 96.6% | 89% | 90.1% | 0 | 0 | 0 | 0.3 |  |  |  |  |  |  | 
5 | CCCCCCCCCCCCCCCC(=O)O[C@@H]1[C@@H](O)[C@@H](O)[C@@H]([C@H](NC(=O)[C@@H]2C[C@@H](CCC)CN2C)[C@H](C)Cl)O[C@@H]1SC [clindamycin-palmitate] | > 10 µM | > 10 µM | > 10 µM |  | 95.5% | 96.6% | 93.5% | 97% | 103% | 94.2% | 99.7% | 97.7% | 101% | 106% | 95% | 94.7% | 90.2% | 101% | 95.4% |  |  |  |  |  | 0 | 0 | 0 |  | 99.9% | 102% | 103% | 96.7% | 104% | 0 | > 10 µM
6 | CN1CCN(c2cc(-c3ccccc3)nc(N)n2)CC1 | > 10 µM | > 10 µM | > 10 µM | > 10 µM | 98.9% | 95.4% | 90.5% | 94.8% | 103% | 96.8% | 98.3% | 97.6% | 98% | 102% | 92.8% | 99% | 95.1% | 91.8% | 93% | 87.5% | 105% | 87.8% | 95.6% | 116% | 0 | 0 | 0 | 0 |  |  |  |  |  |  | 
7 | CCCCCOc1ccc(-c2ccc(-c3ccc(C(=O)N[C@H]4C[C@@H](O)[C@@H](O)NC(=O)[C@@H]5[C@@H](O)[C@@H](C)CN5C(=O)[C@H]([C@@H](C)O)NC(=O)[C@H]([C@H](O)[C@@H](O)c5ccc(O)cc5)NC(=O)[C@@H]5C[C@@H](O)CN5C(=O)[C@H]([C@@H](C)O)NC4=O)cc3)cc2)cc1 [anidulafungin] | > 10 µM | > 10 µM |  |  | 94.8% | 102% | 104% | 101% | 100% | 94.8% | 95.6% | 96.8% | 98.1% | 94% | 110% | 106% | 105% | 105% | 59.2% | 97.4% | 104% | 97.6% | 97.1% | 68.7% | 0 | 0 | 1.7 | 1.9 | 99.6% | 90.1% | 96.6% | 83.2% | 90.5% | 0.5 | > 10 µM
8 | O=C(CCCCCCCn1cc(-c2cccnc2)nn1)Nc1ccccc1-c1ccccc1 [GPP-78] | 0.0395 µM | 0.365 µM | 0.352 µM | 0.415 µM | 99.2% | 103% | 8.7% | 2.1% | 2.7% | 101% | 99.7% | 110% | 0.2% | 0.1% | 109% | 97.9% | 106% | 4% | 3.6% | 96.6% | 92% | 103% | 25.4% | 18.8% | 28.7 | 17.2 | 16.8 | 13.6 |  |  |  |  |  |  | 
9 | COc1ccc2nc3ccc(Cl)cc3c(SCCCN)c2c1 | > 10 µM | > 10 µM | > 10 µM | > 10 µM | 99.7% | 93.7% | 93.4% | 93.2% | 109% | 98.8% | 101% | 98.4% | 104% | 98.8% | 94.9% | 99.7% | 93.9% | 93.5% | 99.2% | 98.6% | 106% | 98.8% | 106% | 101% | 0 | 0 | 0 | 0 |  |  |  |  |  |  | 
10 | CC(C)[C@@H]1CC[C@@H](C)C[C@@H]1P(=O)(c1ccccc1)c1ccccc1 [DPO-1] | > 10 µM | > 10 µM | > 10 µM |  | 112% | 105% | 110% | 96.6% | 105% | 98.5% | 100% | 97.3% | 102% | 93.7% | 100% | 102% | 98.7% | 96.6% | 78% |  |  |  |  |  | 0 | 0 | 1.2 |  | 95.9% | 98.4% | 96.7% | 93.7% | 94.1% | 0 | > 10 µM
11 | OCCCNc1cc(-c2ccnc(Nc3cccc(Cl)c3)n2)ccn1 | 0.178 µM | 0.237 µM | 0.223 µM | 0.266 µM | 94.5% | 108% | 81.9% | 5.3% | 15.6% | 101% | 95% | 90.9% | 5.8% | 13% | 95.9% | 97.1% | 91.6% | 26.1% | 31.8% | 93.6% | 111% | 93% | 7.7% | 5.6% | 20.1 | 18.5 | 14.9 | 17.9 |  |  |  |  |  |  | 
12 | COc1cc2nccc(Oc3ccc(NC(=O)NC4CC4)c(Cl)c3)c2cc1C(N)=O [lenvatinib] | > 10 µM | > 10 µM | > 10 µM | > 10 µM | 102% | 106% | 106% | 99.1% | 99.6% | 105% | 101% | 101% | 90.8% | 76.3% | 106% | 95.5% | 94.7% | 91.2% | 75.6% | 110% | 108% | 105% | 110% | 95.4% | 0 | 2 | 1.4 | 0 | 115% | 98.1% | 89.6% | 94.7% | 68.3% | 2.3 | 
13 | O=C(Cc1cccc(OC(F)(F)F)c1)Nc1ccc(CCCCc2nnc(NC(=O)Cc3ccccn3)s2)nn1 [CB-839] |  | > 10 µM | > 10 µM |  | 95.7% | 93.9% | 89.5% | 65.2% | 65.3% | 99.6% | 105% | 92.6% | 75.9% | 82% | 94.9% | 98.7% | 101% | 105% | 106% | 96.7% | 89.2% | 78.1% | 66.1% | 71.4% | 7.1 | 4.7 | 0 | 8.4 | 107% | 102% | 89.5% | 89.1% | 86.6% | 1.5 | > 10 µM
14 | COc1cc2c(cc1OC(C)C)[C@H](c1ccc(Cl)cc1)N(c1ccc(N(C)C[C@H]3CC[C@H](N4CCN(C)C(=O)C4)CC3)cc1)C(=O)C2 [CGM097] | 1.45 µM | 2.36 µM | > 10 µM | 1.31 µM | 102% | 105% | 95.1% | 83.3% | 46.9% | 98.1% | 104% | 94.7% | 94.6% | 44.8% | 96.6% | 105% | 93.6% | 98.8% | 85.9% | 104% | 109% | 100% | 75.2% | 26.1% | 5 | 3.8 | 0.3 | 7.6 |  |  |  |  |  |  | 
15 | Cc1ccc2nc(NCCN)c3ncc(C)n3c2c1 | 1.86 µM | 3.04 µM |  | 1.69 µM | 102% | 92.6% | 94.5% | 90.3% | 44% | 95.2% | 96.1% | 94.6% | 98.7% | 28.4% | 95.8% | 95.9% | 95.8% | 102% | 66% | 111% | 100% | 86.6% | 79.6% | 3.6% | 4.6 | 4.1 | 1.4 | 8.6 | 91.9% | 93% | 89.4% | 102% | 70.2% | 1.2 | 
